From US8883793B2, “Tubulin inhibitors and methods of using the same” (Development Center for Biotechnology, priority 2010, dated 2014)

How the values were obtained:
porcine brain tubulin = assay: Tubulin polymerization assay; format: biochemical; details: at 10 μM concentration
Experimental: In vitro tubulin polymerization assay was performed by using the Tubulin Polymerization Assay Kit (Cytoskeleton, Inc., Denver, Colo.) in a 96-well format, which used the polymerization of porcine brain tubulin in vitro in the presence of varying concentrations of the test compounds. Fluorescence measurements were obtained at 1-minute intervals over a 31-minute period. Fluorescent measurements were performed using excitation at 365 nm, and emission was measured at 440 nm using a Packard Fusion Alpha Microplate Analyzer. Data were analyzed as relative fluorescent units by GraphPad Prism 5 Demo.

biotinylated tubulin = assay: Colchicine competitive-binding assay; details: at 10 μM concentration, 3H-colchicine; for Inhibition rate (%) (colchicine competitive-binding): right column pair of Table 7; for binding rate (%) (colchicine competitive-binding): left column pair of Table 7
Experimental: The colchicine competitive-binding assay was done by using the Colchicine Site competitive Assay Kit (Cytoskeleton, Inc.), streptavidin-coated yttrium SPA beads(GE Healthcare, Inc.), and ^3H-colchicine(PerkinElmer, Inc.). Briefly, the binding mixture includes 1 μL^3H-labeled ligand (specific activity […]), and 1 μg biotinylated tubulin and 88 μg SPA beads in 200 μL assay buffer. The test compound and ^3H-labeled ligand were added before tubulin. After incubation at 37° C. for 2 hours, the SPA beads were allowed to settle down for 24 hours at room temperature, and scintillation counting was done on the TopCount Microplate Scintillation Counter.

KB cell = assay: MTS assay, growth inhibition of KB cells; format: cell-based; details: Homo sapiens, at 10 μM concentration, incubated for 72 h, read-out: Inhibition rate (%) (growth inhibition rate of MTS assay)
Experimental: MTS assay was performed in determining the growth inhibition of cancer cells. MTS ((3-(4,5-dimethylthiazol-2-yl)-5-(3-carboxymethoxyphenyl)-2-(4-sulfophenyl)-2H-tetrazolium)), in the presence of phenazine methosulfate (PMS) and reductases, produces a formazan product that has an absorbance maximum at 490-500 nm. MTS assays (and closely related MTT assay) are commonly used to measure cell viabilities or survivals.
Briefly, KB/Hela, NCI-H460, A375, Colo205, HCT-116, U937, MCF-7, MDA-MB-231, A549, H1975 cells were seeded into 96-well plate at 4000, 4000, 2000, 2000, 2000 cells/well. After 24 h for attachment, test compound was added into each well and incubated for 72 h. A total of 20 μl of MTS reaction reagent containing the MTS (Promega, Madison, Wis.) and PMS in a ratio of 20:1 was added into each well to react with dehydrogenase enzyme in survival cells. After 3 h, the absorbance at 490 nm was monitored using Emax precision microplate reader (Molecular Devices, Sunnyvale, Calif.).
The growth inhibition rate of MTS assay at KB cell of these compounds (at 10 μM concentration) are list in Table 5.

Structure (SMILES)	Inhibition rate (%) of tubulin polymerization (porcine brain tubulin) [%]	Inhibition rate (%) (colchicine competitive-binding) (biotinylated tubulin)	inhibition at 10 µM (KB cell) [%]	binding rate (%) (colchicine competitive-binding) (biotinylated tubulin)
Cc1ccc(CCC(=O)Nc2ncc(-c3ccc(F)cc3)cn2)o1 [Compound 105, N-[5-(4-Fluoro-phenyl)-pyrimidin-2-yl]-3-(5-methyl-furan-2-yl)-propionamide]	72.2	99.3	96.7	
Cc1ccc(CCC(=O)Nc2ncc(Cc3ccccc3)s2)o1 [Compound 1, N-(5-Benzyl-thiazol-2-yl)-3-(5-methyl-furan-2-yl)-propionamide]			95.4	50.2
COc1ccc(Cc2cnc(NC(=O)CCc3ccc(F)cc3)s2)c(OC)c1OC [Compound 54, 3-(4-Fluoro-phenyl)-N-[5-(2,3,4-trimethoxy-benzyl)-thiazol-2-yl]-propionamide]			96.1	73.3
O=C(CCc1ccc(F)cc1)Nc1ncc(Cc2ccc(F)cc2)s1 [Compound 12, N-[5-(4-Fluoro-benzyl)-thiazol-2-yl]-3-(4-fluoro-phenyl)-propionamide]			96	51.2
COc1cccc(-c2cnc(NC(=O)CCc3ccc(C)o3)nc2)c1OC [Compound 100, N-[5-(2,3-Dimethoxy-phenyl)-pyrimidin-2-yl]-3-(5-methyl-furan-2-yl)-propionamide]	84.3	83.4	97.8	
COc1ccc(Cc2cnc(NC(=O)CCc3ccc(C)o3)s2)cc1 [Compound 5, N-[5-(4-Methoxy-benzyl)-thiazol-2-yl]-3-(5-methyl-furan-2-yl)-propionamide]			95.8	63.8
Cc1nc(NC(=O)CCc2ccccc2)sc1-c1ccc(F)cc1 [Compound 59, N-[5-(4-Fluoro-phenyl)-4-methyl-thiazol-2-yl]-3-phenyl-propionamide]			93.5	76.3
O=C(/C=C/c1ccccc1)Nc1ncc(-c2ccccc2)cn1 [Compound 93, 3-Phenyl-N-(5-phenyl-pyrimidin-2-yl)-acrylamide]		57.2	96	
COc1ccc(Cc2cnc(NC(=O)CCc3ccc(C)o3)s2)c(OC)c1OC [Compound 56, 3-(5-Methyl-furan-2-yl)-N-[5-(2,3,4-trimethoxy-benzyl)-thiazol-2-yl]-propionamide]			94.7	88.3
O=C(CCc1ccccc1)Nc1ncc(Cc2ccc3c(c2)OCO3)s1 [Compound 6, N-(5-Benzo[1,3]dioxol-5-ylmethyl-thiazol-2-yl)-3-phenyl-propionamide]			95.1	63.6
Cc1cc(-c2ccc(N(C)C)cc2)cnc1NC(=O)CCc1ccccc1 [Compound 119, N-[5-(4-Dimethylamino-phenyl)-3-methyl-pyridin-2-yl]-3-phenyl-propionamide]		58.2	95.1	
Cc1ccc(CCC(=O)Nc2ncc(-n3ccnc3)cc2C)o1 [Compound 87, N-(5-Imidazol-1-yl-3-methyl-pyridin-2-yl)-3-(5-methyl-furan-2-yl)-propionamide]		54.6	93.9	
COc1ccc2cc(Cc3cnc(NC(=O)CCc4ccc(F)cc4)s3)ccc2c1 [Compound 13, 3-(4-Fluoro-phenyl)-N-[5-(6-methoxy-naphthalen-2-ylmethyl)-thiazol-2-yl]-propionamide]			94.6	60.0
Cc1nc(NC(=O)CCc2ccccc2)sc1Cc1ccc2c(c1)OCO2 [Compound 60, N-(5-Benzo[1,3]dioxol-5-ylmethyl-4-methyl-thiazol-2-yl)-3-phenyl-propionamide]			95.1	64.6
O=C(CCc1ccccc1)Nc1ccc(Sc2ccccc2)cn1 [Compound 81, 3-Phenyl-N-(5-phenylsulfanyl-pyridin-2-yl)-propionamide]		70.0	95.1	
Cc1ccc(CCC(=O)Nc2ncc(Oc3ccc(F)cc3)s2)o1 [Compound 64, N-[5-(4-Fluoro-phenoxy)-thiazol-2-yl]-3-(5-methyl-furan-2-yl)-propionamide]			95.9	54.4
O=C(CCc1ccccc1)Nc1ncc(-c2ccc(F)cc2)s1 [Compound 58, N-[5-(4-Fluoro-phenyl)-thiazol-2-yl]-3-phenyl-propionamide]	55.1		85.8	
Cc1nc(NC(=O)CCc2cccnc2)sc1Cc1ccc2c(c1)OCO2 [Compound 62, N-(5-Benzo[1,3]dioxol-5-ylmethyl-4-methyl-thiazol-2-yl)-3-pyridin-3-yl-propionamide]			96	55.3
COc1cccc(-c2cnc(NC(=O)/C=C/c3ccccc3)nc2)c1OC [Compound 101, N-[5-(2,3-Dimethoxy-phenyl)-pyrimidin-2-yl]-3-phenyl-acrylamide]		56.9	97.5	
O=C(CCc1ccccc1)Nc1ncc(-c2cccc3ccccc23)cn1 [Compound 104, N-(5-Naphthalen-1-yl-pyrimidin-2-yl)-3-phenyl-propionamide]		61.3	96.6	
COc1ccc(Cc2cnc(NC(=O)CCc3ccc(F)cc3)s2)cc1 [Compound 11, 3-(4-Fluoro-phenyl)-N-[5-(4-methoxy-benzyl)-thiazol-2-yl]-propionamide]			95.1	62.4
Cc1nc(NC(=O)CCc2ccc(F)cc2)sc1Cc1ccc2c(c1)OCO2 [Compound 61, N-(5-Benzo[1,3]dioxol-5-ylmethyl-4-methyl-thiazol-2-yl)-3-(4-fluoro-phenyl)-propionamide]			90.9	57.9
O=C(CCc1cccnc1)Nc1ncc(Cc2ccc(F)cc2)s1 [Compound 4, N-[5-(4-Fluoro-benzyl)-thiazol-2-yl]-3-pyridin-3-yl-propionamide]			93.9	58.6
O=C(/C=C/c1ccccc1)Nc1ncc(-c2ccc(F)cc2)cn1 [Compound 98, N-[5-(4-Fluoro-phenyl)-pyrimidin-2-yl]-3-phenyl-acrylamide]		57.5	81.9	
COc1cc(Cc2cnc(NC(=O)CCc3ccccc3)s2)cc(OC)c1OC [Compound 49, 3-Phenyl-N-[5-(3,4,5-trimethoxy-benzyl)-thiazol-2-yl]-propionamide]			95.1	64.9
Cc1ccc(CCC(=O)Nc2ncc(-c3cccc4ccccc34)cn2)o1 [Compound 103, 3-(5-Methyl-furan-2-yl)-N-(5-naphthalen-1-yl-pyrimidin-2-yl)-propionamide]		81.1	94.1	
COc1cccc(CCC(=O)Nc2nc(C)c(Cc3ccc4c(c3)OCO4)s2)c1 [Compound 63, N-(5-Benzo[1,3]dioxol-5-ylmethyl-4-methyl-thiazol-2-yl)-3-(3-methoxy-phenyl)-propionamide]			95.6	63.3
